# Measured values published in patent publication US8252740B2, “Thermally-targeted delivery of medicaments including doxorubicin” (The University of Mississippi Medical Center, priority 2006, dated 2012).
# Columns and labels:
# [1] = Turbidity assay of the transition temperature (Tt); assay type: physicochemical
# Protocol: In order to apply ELP-based polypeptides for drug delivery, a suitable temperature transition must be attained. The drug-labeled ELP should undergo its phase transition between 39 and 42° C., a temperature range sufficiently above normal body temperature to prevent unwanted systemic aggregation, but not hot enough to cause extensive toxicity. Elastin-like polypeptide is ideally suited as a thermally targeted drug carrier because the transition temperature can be easily manipulated by varying the molecular weight or the amino acid composition of the guest residue X in the VPGXG (SEQ ID NO: 2) sequence using simple molecular biology techniques. The transition temperature of Tat-ELP-GFLG-DOX (SEQ ID NO: 3) was assessed by monitoring the turbidity of a solution of the polypeptide while heating in physiological buffer. […] The polypeptide is soluble and the solution is clear at physiological temperature (37° C.).
# 1.4. Characterization of the Transition Temperature. The temperature induced aggregation of the proteins was characterized by monitoring absorbance at 350 nm while increasing the temperature. For initial analysis of Dox-labeled ELPs, solutions containing 10 μM protein in PBS were heated or cooled at a constant rate of 1° C./min in a temperature-controlled multicell holder in a UV-visible spectrophotometer (Cary 100, Varian instruments). The analysis was repeated with Tat-ELP1-GFLG-Dox (SEQ ID NO: 3) at concentrations ranging from 1 μM to 30 μM in cell culture media in order to determine the concentration dependence of the phase transition under experimental conditions. Absorbance data was converted to percentage of the maximal absorbance for each curve, and the Tt was defined as the temperature at which the OD350 reached 50% of the maximum turbidity. The concentration dependence of the Tt was fit using a logarithmic equation.
# 3.2. Thermal Properties of the Dox Delivery Vector. […] The Tt of Tat-ELP-GFLG-Dox (SEQ ID NO: 3) was assessed by monitoring the turbidity of a 10 μM solution of the polypeptide while heating in PBS. […]
# MES-SA cells [2] = assay: DIC microscopy of apoptotic cell morphology; assay type: cell-based, human; settings: 10 μM
# Protocol: 1.9. Apoptosis Assays. For differential interference contrast (DIC) microscopy, MES-SA cells were plated onto 22 mm^2 coverslips at 50% confluence. Cells were treated as described above with the indicated protein, rinsed with PBS, and mounted onto glass slides. The unfixed cells were imaged immediately using a Zeiss Axiovert 200 DIC microscope with a 40× oil immersion objective and a Coolsnap HQ camera.
# 2.6. Induction of Apoptosis. […] This effect was documented by treating MES-SA cells adhered to glass cover slips with each construct and imaging them by DIC microscopy. Cells were treated for 1 h as described above, then immediately mounted on slides and imaged without fixation. […] Untreated cells were spread onto the glass, and morphological features such as nuclei and endocytic vesicles were readily visible. This morphology was not altered by simply exposing the cells to hyperthermia. […] However, such effects were minor and limited to a fraction of the cells. […] All cells examined were rounded with no discernable nucleus and fragmented chromosomes.
# MES-SA cells [3] = assay: Caspase activation, FLICA polycaspase assay with flow cytometry; assay type: cell-based, human; settings: 10 μM
# Protocol: MES-SA cells were treated for 1 h at 37 or 42° C. with Tat-ELP-GFLG-DOX (SEQ ID NO: 3), the control construct lacking the Tat sequence, with free DOX. Cells were harvested after the 1 h exposure, and caspase activity was detected using a fluorescent caspase inhibitor (Immunochemistry Technologies, Bloomington, Minn.) and flow cytometry.
# Caspase activation was measured using a carboxyfluorescein FLICA polycaspase assay (Immunochemistry Technologies, Bloomington, Minn.). Cells were treated as described above with the indicated protein, collected by trypsinization, and stained for 2 h at 37° C. with the carboxyfluorescein FLICA reagent as described by the manufacturer. Cells were rinsed twice and analyzed for caspase activation by flow cytometry using a Cytomics FC 500 flow cytometer (n=5,000 cells). Forward versus side scatter gating was used to eliminate cell debris from the analysis, and a histogram of fluorescein fluorescence (channel FL1) was bimodal with peaks for caspase positive and caspase negative cells. The percentage of caspase positive cells was determined from the histograms and expressed as an average of 3 experiments.
# MES-SA cells were treated as described above, cells were harvested after the 1 h exposure, and caspase activity was detected using a fluorescent caspase inhibitor and flow cytometric analysis. […] Cell numbers under each peak were quantified and averaged to determine the percentage of the cell population in which caspases were activated under each treatment condition. […] In fact, the percent of caspase positive cells was enhanced almost 4 fold when cells were treated with Tat-ELP1-GFLG-Dox (SEQ ID NO: 3) at 42° C. versus 37° C. (p<0.05).
substance,measurement,setting,value
Tat-ELP1-GFLG-Dox,Transition temperature (Tt),"[1]; 10 μM in PBS, heated 1° C./min, midpoint of turbidity",40 °C
same,State of the solution at physiological temperature,[1]; 37° C.,soluble
same,State of the solution at hyperthermia temperature,[1]; 42° C.,aggregated
same,Cell morphology (hallmarks of apoptosis),MES-SA cells [2]; 1 h at 37° C. (below the Tt),more extensive rounding and blebbing
same,Cell morphology (hallmarks of apoptosis),MES-SA cells [2]; 1 h at 42° C. (above the Tt),normal cell morphology was completely destroyed
same,Enhancement of percent caspase positive cells at 42° C. versus 37° C.,MES-SA cells [3]; 1 h,~4 fold
same,Caspase activation / apoptosis induction,MES-SA cells [3]; 1 h at 37° C.,slightly above control levels
same,Caspase activation / apoptosis induction,MES-SA cells [3]; 1 h at 42° C.,significantly higher proportion of the population
